Laboratory results as given in patent US20220274947A1, “NOVEL HETEROARYL-TRIAZOLE COMPOUNDS AS PESTICIDES” (Bayer Aktiengesellschaft, priority 2019, published 2022).

Experiments:
Type in all cases: in vivo
Ctenocephalides felis [1] = assay: Ctenocephalides felis oral test (CTECFE Oral); details: 48 h, read-out: activity (mortality)
Outline: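 Percent mortality was recorded 2 days after roughly 20 adult Ctenocephalides felis fed on treated cattle blood. The blood was warmed to 37 °C beneath a parafilm membrane, with the fleas kept at room temperature. Compound was dissolved in DMSO and diluted into the blood to test concentration.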

Rhipicephalus microplus [2] = assay: Rhipicephalus (Boophilus) microplus injection test (BOOPMI Inj); details: 168 h, injection into adult engorged female ticks, egg deposition after 7 days, read-out: activity (efficacy: 100% means all eggs are infertile); for pest or weed control at 0.004 mg: application rate 4 μg/tick; for pest or weed control at 0.02 mg: application rate 20 μg/tick
Outline: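 Compound in DMSO, 1 μL, injected abdominally into five adult engorged females, which were then held in a climate chamber. Read-out is egg fertility, scored from deposition at 7 days, with unclear eggs followed to hatching (~42 days); 0% means all eggs fertile, 100% all infertile.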

Spodoptera frugiperda = Spodoptera frugiperda spray test; details: in Zea mays, 168 h, read-out: activity (mortality)
Outline: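 Percent kill of fall armyworm caterpillars was assessed 7 days after infesting dried, treated maize leaf sections. Treatment was a spray of compound in acetone/dimethylformamide, diluted with water containing emulsifier at 1000 ppm.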

Ctenocephalides felis [3] = assay: Ctenocephalides felis in-vitro contact test, adult cat flea (CTECFE Cont); details: application rate 5 μg/cm^2 (=500 g/ha), adult cat fleas, after 48 hours, read-out: activity (efficacy: 100% means all fleas are dead or moribund)
Outline: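 Efficacy, as percent of fleas dead or moribund, was scored 48 h after adults (5-10 per tube) were placed in glass tubes whose walls carried dried compound at 5 μg/cm^2 (900 ppm solution). Moribund meant failing to climb away from a 45-50° C. hot plate within 5 min.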

Myzus persicae = Myzus persicae spray test; details: in Brassica rapa, foliar, 120 h; for mortality at 500 g/ha: read-out: activity (mortality), application rate 500 g/ha, spray, Chinese cabbage leaf disks, after 5 days; for mortality at 100 g/ha: read-out: activity (mortality), application rate 100 g/ha, spray, Chinese cabbage leaf disks, after 5 days
Outline: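 Aphid mortality in % was assessed 5 days after spraying; leaf disks of Brassica pekinensis carrying mixed-instar green peach aphids were treated. Spray preparation: active compound in acetone plus dimethylformamide, diluted with emulsifier-containing water (1000 ppm).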

Diabrotica balteata = Diabrotica balteata spray test; details: 168 h, wheat seeds, larvae, after 7 days, read-out: activity (efficacy: 100% means all seedlings have grown up like in the untreated, uninfected control); for pest or weed control at 32 µg/disc, 100 g/ha: application rate 100 g/ha (=32 μg/well); for pest or weed control at 160 µg/disc, 500 g/ha: application rate 500 g/ha (=160 μg/well)
Outline: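 Efficacy (%) was scored 7 days after spraying, with 100% meaning growth like the untreated, uninfected control and 0% meaning no seedling grew. Spray solutions of compound in acetone/DMF with emulsifier-containing water went onto 1-day-germinated wheat seeds, and each unit was then infested with 10-20 banded cucumber beetle larvae.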

Rhipicephalus microplus [4] = assay: Rhipicephalus (Boophilus) microplus in-vitro contact test, larval cattle tick, strain Parkhurst (BOOPMI Cont); details: application rate 5 μg/cm^2 (=500 g/ha), tick larvae, after 48 hours, read-out: activity (efficacy: 100% means all larvae are dead or moribund)
Outline: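 After 48 h at 27° C. and 85% humidity, percent dead or moribund larvae was scored from negative geotactic behaviour. Larvae (20-50, Parkhurst strain, synthetic pyrethroid-resistant) were exposed in tubes coated with compound from acetone, 900 ppm corresponding to 5 μg/cm^2.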

SMILES	mortality at 100 ppm (Ctenocephalides felis [1]) [%]	pest or weed control at 0.004 mg (Rhipicephalus microplus [2]) [%]	pest or weed control at 0.02 mg (Rhipicephalus microplus [2]) [%]	mortality at 100 g/ha (Spodoptera frugiperda) [%]	mortality at 500 g/ha (Spodoptera frugiperda) [%]	pest or weed control at 5 µg/cm2 (Ctenocephalides felis [3]) [%]	mortality at 500 g/ha (Myzus persicae) [%]	pest or weed control at 32 µg/disc, 100 g/ha (Diabrotica balteata) [%]	pest or weed control at 160 µg/disc, 500 g/ha (Diabrotica balteata) [%]	pest or weed control at 5 µg/cm2 (Rhipicephalus microplus [4]) [%]	mortality at 100 g/ha (Myzus persicae) [%]
C[C@H](NC(=O)c1cc(Cl)nc(C(F)(F)F)c1)c1ncnn1-c1ccc(C#N)cn1 [II-5]	90	100	100	100	100	100	90	100	100	100	–
C[C@H](NC(=O)c1cc(Cl)cc(OC(F)(F)F)c1)c1ncnn1-c1cc(N)ccn1 [II-7]	100	100	100	–	100	90	100	100	100	–	–
C[C@H](NC(=O)c1ccnc(C(F)(F)F)n1)c1ncnn1-c1ccc(C#N)cn1 [II-8]	100	100	100	–	100	90	90	100	100	100	–
C[C@H](NC(=O)c1cc(Cl)cc(C(F)F)c1)c1ncnn1-c1ccc(C#N)cn1 [II-12]	100	100	100	100	100	100	90	100	100	100	90
C[C@H](NC(=O)c1cc(Cl)cc(OC(F)(F)F)c1)c1ncnn1-c1ncc(Cl)s1 [II-16]	100	100	100	100	–	100	–	100	100	100	90
CCN(C(=O)c1ccc(-n2ncnc2[C@H](C)NC(=O)c2cc(Cl)cc(C(F)(F)F)c2)nc1)C1CC1 [II-31]	–	100	100	100	100	100	100	100	100	100	100
Cc1nc([C@H](C)NC(=O)c2cc(Br)cc(C(F)(F)F)c2)n(-c2ccc(C#N)cn2)n1 [II-32]	–	80	100	100	100	100	90	100	100	100	100
C[C@H](NC(=O)c1cc(C(F)(F)F)cc(C(F)(F)F)c1)c1ncnn1-c1ccc(C(=O)NC2CC2)cn1 [II-37]	–	100	100	100	100	100	100	100	100	100	–
C[C@H](NC(=O)c1cc(C(F)(F)F)cc(C(F)(F)F)c1)c1ncnn1-c1ccc(C(=O)N(C)C2CC2)cn1 [II-38, 6-(5-{(1S)-1-[3,5-bis(trifluoromethyl)benzamido]ethyl}-1H-1,2,4-triazol-1-yl)-N-cyclopropyl-N-methylnicotinamide]	–	100	100	100	100	100	100	100	100	100	100
